From ChEMBL document CHEMBL1201862, “PubChem BioAssay data set” (2004)
The source made the active and inactive calls.

How the values were obtained:
Bcl-2-related protein A1 [1] = biological target: T1, Bcl-2-related protein A1 (Mus musculus, UniProt Q07440); assay: Bfl-1 binding inhibitors, SAR follow-up, biochemical, fluorescence polarization (AID 1070)
T1 sequence (Q07440 whole entry): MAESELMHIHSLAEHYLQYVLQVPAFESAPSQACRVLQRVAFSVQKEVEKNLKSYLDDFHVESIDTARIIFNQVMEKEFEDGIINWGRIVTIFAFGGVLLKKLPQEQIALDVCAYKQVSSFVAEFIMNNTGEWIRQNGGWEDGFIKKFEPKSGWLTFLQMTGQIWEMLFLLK

Bcl-2-related protein A1 [2] = biological target: T1, Bcl-2-related protein A1; assay: small-molecule antagonists of Bfl-1/BH3 interaction – biochemical, TR-FRET, mouse Bfl-1, confirmation (AID 621);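 also: TR-FRET binding of GST-Bfl-1 to FITC-labelled Bid peptide via terbium antibody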
[3] = biological target: Glyceraldehyde-3-phosphate dehydrogenase (Homo sapiens, UniProt P04406)
Chain of Glyceraldehyde-3-phosphate dehydrogenase (P04406 whole entry): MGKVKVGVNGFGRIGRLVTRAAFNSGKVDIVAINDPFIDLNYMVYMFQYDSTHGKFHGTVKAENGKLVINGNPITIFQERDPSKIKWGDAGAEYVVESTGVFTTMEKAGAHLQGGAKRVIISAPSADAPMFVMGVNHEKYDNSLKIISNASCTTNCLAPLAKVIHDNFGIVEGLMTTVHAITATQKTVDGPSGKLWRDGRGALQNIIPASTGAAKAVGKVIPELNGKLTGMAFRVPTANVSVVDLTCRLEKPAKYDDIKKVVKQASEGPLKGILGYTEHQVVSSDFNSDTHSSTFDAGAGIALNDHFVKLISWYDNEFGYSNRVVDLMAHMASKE

cells [4] = assay: cells
[5] = NIH3T3 cell viability loss – ATP luminescence, mouse fibroblasts, counter-screen, dose response (AID 2010); format: functional, cell-based;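 also: cells exposed to compound for about 90 hours before reading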
[6] = Trypanosoma cruzi growth suppression in host cells – NIH3T3 host cells, beta-gal luminescence, confirmation (AID 2044); format: functional, cell-based;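 also: intracellular parasites grown in NIH/3T3 mouse fibroblasts as host cells; luminescent beta-galactosidase reporter signal from transgenic T. cruzi replicating inside host cells; inhibitors lower the luminescence signal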
[7] = biological target: T2, Lytic switch protein BZLF1 (Epstein-Barr virus (strain B95-8) (HHV-4) (Human herpesvirus 4), UniProt P03206); assay: inhibition of BZLF1 ZTA DNA binding – biochemical, fluorescence polarization, Epstein-Barr virus, 1536-well, counter-screen for EBNA-1 inhibitor project, dose response (AID 2377); set-up: species or system human gammaherpesvirus 4;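 also: fluorescence polarization of Cy5-labelled ZRE DNA probe bound by purified Zta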
T2 sequence (P03206 whole entry): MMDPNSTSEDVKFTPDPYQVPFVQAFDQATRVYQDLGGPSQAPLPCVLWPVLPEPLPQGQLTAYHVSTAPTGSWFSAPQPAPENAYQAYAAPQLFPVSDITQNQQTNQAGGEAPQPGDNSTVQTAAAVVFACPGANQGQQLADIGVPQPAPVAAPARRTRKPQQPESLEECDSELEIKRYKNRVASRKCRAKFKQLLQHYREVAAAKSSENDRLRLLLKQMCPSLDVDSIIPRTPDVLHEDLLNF

[8] = NIH-3T3 fibroblast cytotoxicity, dose response, cytotoxicity control, cell-based, fluorescence, Alamar Blue, secondary assay (AID 2327); format: functional;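 also: NIH-3T3 mouse fibroblasts cultured with fluconazole at 8 µg/mL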
[9] = biological target: T3, Epstein-Barr nuclear antigen 1 (Epstein-Barr virus (strain B95-8) (HHV-4) (Human herpesvirus 4), UniProt P03211); assay: inhibition of EBV nuclear antigen 1 DNA binding – biochemical, fluorescence polarization, 1536-well, dose response (AID 2381); set-up: species or system human gammaherpesvirus 4;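 also: fluorescence polarization of a Cy5 DNA probe bound by EBNA-1 protein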
T3 sequence (P03211 whole entry): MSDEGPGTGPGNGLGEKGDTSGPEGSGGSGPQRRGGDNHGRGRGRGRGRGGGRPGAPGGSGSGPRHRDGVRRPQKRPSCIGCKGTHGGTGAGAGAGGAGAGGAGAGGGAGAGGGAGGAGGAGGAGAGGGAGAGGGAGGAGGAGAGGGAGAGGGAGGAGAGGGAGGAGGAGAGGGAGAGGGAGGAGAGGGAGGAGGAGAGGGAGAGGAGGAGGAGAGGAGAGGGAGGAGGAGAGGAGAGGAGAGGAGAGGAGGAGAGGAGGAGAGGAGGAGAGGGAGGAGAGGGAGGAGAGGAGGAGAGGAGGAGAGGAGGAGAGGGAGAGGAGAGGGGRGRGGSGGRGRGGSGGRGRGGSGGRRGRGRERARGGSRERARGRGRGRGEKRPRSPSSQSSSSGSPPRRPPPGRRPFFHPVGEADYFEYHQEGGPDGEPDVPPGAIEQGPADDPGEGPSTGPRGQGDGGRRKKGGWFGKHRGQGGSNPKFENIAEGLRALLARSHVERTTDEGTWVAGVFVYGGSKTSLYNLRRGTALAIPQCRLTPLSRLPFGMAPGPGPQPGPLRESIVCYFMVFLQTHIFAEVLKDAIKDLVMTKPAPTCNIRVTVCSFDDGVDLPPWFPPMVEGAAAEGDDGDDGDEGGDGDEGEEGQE

[10] = fluconazole-exposed Candida albicans growth modulators – fluorescence, retest, confirmation (AID 2467); format: functional, cell-based
[11] = biological target: T4, Trace amine-associated receptor 1 (Homo sapiens, UniProt Q96RJ0); assay: Counterscreen for agonists of the human trace amine associated receptor 1 (hTAAR1): Fluorescence-based cell-based high throughput dose response assay to identify hTAAR1 agonist that also desensitize TAAR1 receptor response.; format: functional
T4 sequence (Q96RJ0 whole entry): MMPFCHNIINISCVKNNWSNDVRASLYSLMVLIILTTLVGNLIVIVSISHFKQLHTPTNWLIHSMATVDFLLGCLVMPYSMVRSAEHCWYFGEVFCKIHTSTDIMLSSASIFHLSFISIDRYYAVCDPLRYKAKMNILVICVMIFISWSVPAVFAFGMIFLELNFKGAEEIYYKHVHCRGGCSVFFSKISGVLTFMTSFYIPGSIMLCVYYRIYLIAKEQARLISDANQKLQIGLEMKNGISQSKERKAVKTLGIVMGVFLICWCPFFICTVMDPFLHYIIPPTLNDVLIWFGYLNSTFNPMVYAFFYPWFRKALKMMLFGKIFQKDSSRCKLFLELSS

[12] = biological target: T4, Trace amine-associated receptor 1; assay: Fluorescence-based cell-based high throughput dose response assay to identify agonists of the human trace amine associated receptor 1 (TAAR1).; format: functional
[13] = biological target: T5, Mannose-6-phosphate isomerase (Homo sapiens, UniProt P34949); assay: MPI inhibition at elevated mannose 6-phosphate – biochemical, fluorescence intensity, high mannose 6-phosphate, primary screen (AID 1220)
T5 sequence (P34949 whole entry): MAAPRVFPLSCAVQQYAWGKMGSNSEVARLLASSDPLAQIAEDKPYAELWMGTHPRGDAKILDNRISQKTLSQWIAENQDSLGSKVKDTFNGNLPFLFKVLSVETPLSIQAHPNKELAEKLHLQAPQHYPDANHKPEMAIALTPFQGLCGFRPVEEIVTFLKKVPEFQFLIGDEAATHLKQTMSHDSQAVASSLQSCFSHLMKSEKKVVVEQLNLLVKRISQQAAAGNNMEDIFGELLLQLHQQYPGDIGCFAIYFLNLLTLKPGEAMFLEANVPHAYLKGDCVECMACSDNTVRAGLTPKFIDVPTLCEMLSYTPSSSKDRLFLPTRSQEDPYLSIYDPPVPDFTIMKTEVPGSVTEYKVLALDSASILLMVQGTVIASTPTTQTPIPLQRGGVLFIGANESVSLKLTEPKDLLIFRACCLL

cells [14] = format: functional, cell-based
cells [15] = format: functional, cell-based; remark: listed apart in the source
Protein Tat = biological target: T6, Protein Tat (Human immunodeficiency virus type 1 group M subtype B (isolate HXB2)(HIV-1), UniProt P04608); format: functional;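 also: tat binding to TAR RNA read out by fluorescence polarization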
T6 sequence (P04608 whole entry): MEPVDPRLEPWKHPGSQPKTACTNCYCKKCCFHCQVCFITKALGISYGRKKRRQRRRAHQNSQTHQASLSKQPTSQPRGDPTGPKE

[16] = P. falciparum Dd2 growth inhibitors, dose response, SYBR Green, cherry-picked samples (AID 1159567); format: functional, cell-based
[17] = growth inhibition of PfATP4-mutant resistant parasites – NITD609-resistant line, SYBR Green, dry powder, dose response (AID 1159571); format: functional, cell-based;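 also: parasites synchronized at ring stage by sorbitol before testing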
[18] = Dd2 malaria parasite growth inhibition potency – SYBR Green, dry powder samples, dose response (AID 1159566); format: functional, cell-based;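 also: potency for growth inhibition with lower SYBR green DNA signal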
[19] = growth inhibition of yeast DHODH-expressing 3D7 parasites – SYBR Green, dry powder samples, dose response (AID 1159570); format: functional, cell-based;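 also: parasite growth measured after 72 hours of compound exposure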
[20] = biological target: T7, RNA-editing ligase 1, mitochondrial (Trypanosoma brucei brucei, UniProt P86926); assay: inhibition of trypanosome RNA editing ligase – biochemical, fluorescence, Trypanosoma brucei, dose response (AID 1117295); format: functional
T7 sequence (P86926 whole entry): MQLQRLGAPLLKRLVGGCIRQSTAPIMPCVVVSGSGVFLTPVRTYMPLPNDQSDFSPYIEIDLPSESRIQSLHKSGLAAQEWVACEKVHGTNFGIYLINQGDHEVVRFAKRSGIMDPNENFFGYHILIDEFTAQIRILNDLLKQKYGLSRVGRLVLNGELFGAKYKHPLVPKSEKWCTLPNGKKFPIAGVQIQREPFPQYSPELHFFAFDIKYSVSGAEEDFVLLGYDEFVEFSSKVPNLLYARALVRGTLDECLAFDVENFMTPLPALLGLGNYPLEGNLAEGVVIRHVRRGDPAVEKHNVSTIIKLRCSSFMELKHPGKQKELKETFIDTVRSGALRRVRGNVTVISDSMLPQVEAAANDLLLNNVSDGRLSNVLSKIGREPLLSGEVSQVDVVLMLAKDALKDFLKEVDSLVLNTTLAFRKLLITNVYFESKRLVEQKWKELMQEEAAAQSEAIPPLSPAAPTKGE

With `O=C1C(Cl)=C(N2CCN(c3ccccc3Cl)CC2)C(=O)N1c1ccc(Cl)c(Cl)c1` the IC50 (Bcl-2-related protein A1 [1]) was > 100 µM (not active), the IC50 (Bcl-2-related protein A1 [2]) was > 100 µM (not active) and the IC50 [3] was > 100 µM (not active).

For `CCn1c(SCC(=O)c2ccccc2)nc2sc3c(c2c1=O)CCN(C)C3`, the EC50 (cells [4]) was 0.061 µM (active), the EC50 [5] was > 60 µM (not active) and the EC50 [6] was < 0.1 µM (active).

In the case of `O=C(CSc1nnc(-c2ccc(Br)cc2)o1)Nc1cccc2ccccc12`, the IC50 [7] is reported as > 111 µM (not active), the EC50 [8] is reported as > 150 µM (inconclusive) and the IC50 [9] is reported as 14.3 µM (not active). For the same compound, the EC50 [10] was > 38 µM (not active).

For `CC1CCCN(C(=S)SCC(=O)c2cc(Br)cc(Br)c2O)C1` (stereo not given), the IC50 [11] was 4.68 µM (active), the EC50 [12] was 0.732 µM (active) and the IC50 [13] was > 50 µM (not active). For the same compound, the EC50 (cells [14]) was > 29.9 µM (inactive) and the IC50 (cells [15]) was > 29.9 µM (inactive).

For `O=P(O)(CN1CCCCCC1)CN1CCCCCC1`, the IC50 (Protein Tat) was > 100 µM (active).

With `C[C@@H]1CN([C@H](C)CO)C(=O)c2cc(NC(=O)Nc3ccc(C(F)(F)F)cc3)ccc2O[C@H]1CN(C)C(=O)Nc1cccc2ccccc12` the AC50 [16] was 1.68 µM (active), the AC50 [17] was 2 µM (active) and the AC50 [18] was 1.99 µM (active). For the same compound, the AC50 [19] was 1.43 µM (active).

For `O=C(c1ccncc1)N1CC(=O)N2[C@H](C1)[C@@H](c1ccc(-c3cccnc3)cc1)[C@@H]2CO`, the AC50 [16] was < 0.3 µM (active), the AC50 [17] was 0.161 µM (active) and the AC50 [18] was 0.112 µM (active). For the same compound, the AC50 [19] was 0.188 µM (active).

In the case of `CN1CCC(N[C@@H](Cc2ccccc2)C(=O)NCC(c2ccccc2)c2ccccc2)(C(=O)NC2CCCCC2)CC1`, the IC50 [20] is reported as > 96.6 µM (inactive).
